According to patent publication EP0195397A1, “m-Cyanophenethanolamines as animal growth promoters and antilipogenic agents” (AMERICAN CYANAMID COMPANY, priority 1985, dated 1986):
Where two headings read alike, the source gives them in different places.

Experiments:
[1] = molecular target: T1, Beta-1 adrenergic receptor membranes (Meleagris gallopavo, UniProt P07700); assay: Beta-1 adrenergic activity by (H3) dihydroalprenolol radioligand binding to receptor membranes; design: species or system turkey
T1 construct: Freshly drawn heparinized whole blood from turkeys and rats is centrifuged; from tissue; host or cells: erythrocyte membranes from freshly drawn turkey blood
Experimental: Beta-1 adrenergic activity of experimental compounds is identified by radioactive ligand-binding studies by using beta adrenergic receptor membranes and adrenergic antagonist (H3) dihydroalprenolol (DHA). Binding of (H3) DHA to membrane fractions is assayed by filtration on glass fiber filters. Specific binding is defined as total radioactivity bound minus nonspecific bound radioactivity, i.e., binding in the presence of 100 µM non-radioactive DHA. Results are expressed as the concentrations of the compound required to displace […] radioactive ligand from binding of beta adrenergic receptors (K-50).
In these tests, beta adrenergic receptor membranes are incubated with radioactive dihydroalprenolol (H3 DHA) and experimental compounds. The bound radio- ligand is separated by filtration on glass fiber filters and counted by scintillation counter.
Beta-1 adrenergic receptor membranes are isolated from turkey and rat erythrocytes respectively using the procedures of: • Hancock, A., DeLean, A., Lefkowitz, R. J. Mol. Pharmacol. 16:1, 1979; • DeLean, A, Hancock A., Lefkowitz, R. J. Mol. Pharmacol. 21:5, 1979; or • Lefkowitz, R. J., Stadel, J. M., and Caron, M. G. Ann. Rev. Biochem 52:157, 1983.
Freshly drawn heparinized whole blood from turkeys and rats is centrifuged for five minutes ([…]). The plasma is withdrawn; the remaining erythrocytes are suspended in 150mM sodium chloride solutions and centrifuged. The cells are resuspended and centrifuged twice more. […] The protein concentration of receptor membranes is determined by the biuret method.
To duplicate incubation, tubes are added 200 µl suspended membranes (200 µg protein), 25 µl of compound in solution or buffer and 25 µl (H3) dihydroalprenolol ([…]). […] The filters are rinsed three times with 5 mL of cold buffer (145 mM NaCl, 1 mM ethylenediaminetetraacetic acid, and 10 mM tris, pH 7.4) and subsequently counted by liquid scintillation counter in 10 mL of aquasol. […]

[2] = Evaluation of test compounds as animal growth promoters and antilipogenic agents - mouse test; assay type: in vivo, CFI female mice; conditions: 12-day test period; for Gain (grams): weight gain per cage of ten mice; for % Reduction in fat pad weight vs controls: right uterine fat pad, minus sign = reduction
Experimental: CFI female mice from Carworth Farms are received when they are six-weeks old. They are housed ten to a cage in air-conditioned rooms (22 °C to 25 °C) with automatically-controlled lights, 14 hours on and ten hours off. The basal diet used in these studies is Purina Laboratory Chow (see description below) which is supplied ad libitum. The following is a description of the diet to which the growth-promoting compounds were added. Thirteen days after arrival, the mice are weighed in groups of ten and assigned at random to the different treatments. Each of the treatments is tested in three replicates, i.e., in three cages of ten mice each. There are ten cages of ten control mice each. Drugs are mixed in the diet at the dosage level indicated. Feed and water are offered ad libitum for a 12-day test period. Feed spilled is collected during the test period. At the end of the test period, the collected feed is weighed, and the mean feed consumption per cage of ten mice is determined for each treatment. The mice are weighed as a group of ten, and the weight gain determined. The mice are sacrificed by cervical dislocation. The right uterine fat pad of each mouse is removed. The fat pads for each cage of ten mice are weighed as a unit. Reduction in fat pad weights of animals is generally indicative of a reduction of total body fat of the treated animals.

[3] = concentration required to displace 50% radioactive ligand ((H3) DHA), 23°C, one hour, read-out: β1 K-50

T1 sequence (P07700 whole entry): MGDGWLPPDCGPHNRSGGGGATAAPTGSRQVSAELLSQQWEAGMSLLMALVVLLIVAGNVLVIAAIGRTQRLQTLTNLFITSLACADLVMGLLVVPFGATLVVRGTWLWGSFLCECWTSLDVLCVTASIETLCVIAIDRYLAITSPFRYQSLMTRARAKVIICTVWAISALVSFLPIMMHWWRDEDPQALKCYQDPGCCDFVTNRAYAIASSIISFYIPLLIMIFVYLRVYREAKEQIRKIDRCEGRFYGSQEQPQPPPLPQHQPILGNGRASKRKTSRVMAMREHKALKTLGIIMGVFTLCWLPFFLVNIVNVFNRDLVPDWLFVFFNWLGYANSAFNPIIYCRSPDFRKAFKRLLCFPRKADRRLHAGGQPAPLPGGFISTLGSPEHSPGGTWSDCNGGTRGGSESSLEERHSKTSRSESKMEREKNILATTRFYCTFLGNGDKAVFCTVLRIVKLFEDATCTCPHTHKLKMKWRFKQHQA

| Compound | IC50 [1] [µM] | Gain (grams) ([2]; 3 ppm in diet) | Gain (grams) ([2]; 6 ppm in diet) | Gain (grams) ([2]; 12 ppm in diet) | Gain (grams) ([2]; 25 ppm in diet) | Gain (grams) ([2]; 50 ppm in diet) | % Reduction in fat pad weight vs controls ([2]; 100 ppm in diet) [%] | Gain (grams) ([2]; 100 ppm in diet) | Gain (grams) ([2]; 200 ppm in diet) | % Reduction in fat pad weight vs controls ([2]; 25 ppm in diet) | % Reduction in fat pad weight vs controls ([2]; 50 ppm in diet) [%] | IC50 [1, 3] [µM] |
| --- | --- | --- | --- | --- | --- | --- | --- | --- | --- | --- | --- | --- |
| CC(C)(C)NCC(O)c1cc(Cl)c(N)c(Cl)c1 (stereo not drawn) [Clenbuterol, reference compound] | 0.977 |  |  |  |  |  |  |  |  |  |  |  |
| CC(C)NCC(O)c1cccc(C#N)c1 (stereo not drawn) [the 2nd table drawing] |  | 32.4 | 23.4 | 29.4 | 37.1 | 37.4 | -9.1 | 37.3 | 39.0 |  |  |  |
| CC(C)(C)NCC(O)c1cccc(C#N)c1 (stereo not drawn) [the 3rd table drawing] |  | 29.3 | 37.4 | 30.5 | 35.9 | 41.1 | -16.9 | 36.1 | 33.2 | +5.2% | -11.6 |  |
| CC(C)NCC(O)c1cccc(C#N)c1 (stereo not drawn) [the 4th table, row 4 drawing] |  |  |  |  |  |  |  |  |  |  |  | > 100 |
| CC(C)(C)NCC(O)c1cccc(C#N)c1 (stereo not drawn) [the 4th table, row 5 drawing] |  |  |  |  |  |  |  |  |  |  |  | > 100 |
